What was measured:
MurG protein = MurG protein (Escherichia coli, UniProt P17443); assay: Target-inhibitor interaction by SPR; assay type: binding
Description: (§1) We have examined specific binding interactions between select target proteins and their specific inhibitors. […] [drawing]

[1] = target: TrpS protein (tryptophanyl tRNA synthetase) (Escherichia coli, UniProt P00954); assay: Target-inhibitor interaction by SPR; assay type: binding
Description: as §1

[2] = target: Bovine Serum Albumin (BSA) (Bos taurus, UniProt P02769); assay: SPR binding of ferulic acid to pre-immobilized BSA; details: 10, 20, and 50 μM injected; flow rate 1 mL/h
Chain of Bovine Serum Albumin (BSA) (P02769 25-607): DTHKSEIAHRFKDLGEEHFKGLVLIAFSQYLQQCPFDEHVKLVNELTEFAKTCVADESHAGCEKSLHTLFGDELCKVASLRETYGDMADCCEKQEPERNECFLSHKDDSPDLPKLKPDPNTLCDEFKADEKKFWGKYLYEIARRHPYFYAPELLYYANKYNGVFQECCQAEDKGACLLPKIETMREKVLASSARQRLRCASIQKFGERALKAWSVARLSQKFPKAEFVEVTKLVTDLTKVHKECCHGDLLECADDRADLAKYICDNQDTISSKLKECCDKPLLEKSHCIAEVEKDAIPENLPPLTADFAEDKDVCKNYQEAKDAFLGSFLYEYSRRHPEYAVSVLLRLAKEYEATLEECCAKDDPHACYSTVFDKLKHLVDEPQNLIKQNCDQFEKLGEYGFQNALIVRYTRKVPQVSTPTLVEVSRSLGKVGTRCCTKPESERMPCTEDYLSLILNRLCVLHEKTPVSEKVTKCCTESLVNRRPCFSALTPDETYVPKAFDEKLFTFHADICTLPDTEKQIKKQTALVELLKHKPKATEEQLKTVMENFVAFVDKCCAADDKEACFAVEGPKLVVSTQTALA
Method: By injecting solutions containing different concentrations of FA and recording the resultant sensorgrams, the binding constant between FA and BSA was measured. […] Three different FA concentrations (10, 20, and 50 μM) were injected. A flow rate of 1 mL/h was used. [drawing 1] [drawing] Representative SPR sensorgrams showing binding of ferulic acid (structure on the left) onto pre-immobilized BSA molecules.

[3] = system: A. baumannii clinical isolate LAC 13; assay: Antibiotic susceptibility profile; assay type: cell-based, Acinetobacter baumannii; design: key: Resistance; Intermediate; Susceptible
Outline: (§2)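 Read-out is categorical: resistance, intermediate or susceptibility per antibiotic, judged against breakpoints defined for A. baumannii. Only drugs with such breakpoints are included, and strains derive from New York and Los Angeles hospital infections.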

[4] = system: A. baumannii clinical isolate LAC 05; assay: Antibiotic susceptibility profile; assay type: cell-based, Acinetobacter baumannii; design: key: Resistance; Intermediate; Susceptible
Outline: as §2

[5] = system: A. baumannii reference strain SDF; assay: Antibiotic susceptibility profile; assay type: cell-based, Acinetobacter baumannii; design: key: Resistance; Intermediate; Susceptible
Outline: (§3)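 Clinical isolates came from nosocomial infections in New York City and Los Angeles and were tested only against antibiotics with established A. baumannii breakpoints. Each result was categorised as resistant (R), intermediate (I) or susceptible (S).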

[6] = system: A. baumannii clinical isolate LAC 09; assay: Antibiotic susceptibility profile; assay type: cell-based, Acinetobacter baumannii; design: key: Resistance; Intermediate; Susceptible
Outline: as §2

[7] = system: A. baumannii clinical isolate LAC 08; assay: Antibiotic susceptibility profile; assay type: cell-based, Acinetobacter baumannii; design: key: Resistance; Intermediate; Susceptible
Outline: as §2

[8] = system: A. baumannii clinical isolate NY C; assay: Antibiotic susceptibility profile; assay type: cell-based, Acinetobacter baumannii; design: key: Resistance; Intermediate; Susceptible
Outline: as §2

[9] = system: A. baumannii clinical isolate LAC 12; assay: Antibiotic susceptibility profile; assay type: cell-based, Acinetobacter baumannii; design: key: Resistance; Intermediate; Susceptible
Outline: as §2

[10] = system: A. baumannii clinical isolate LAC 10; assay: Antibiotic susceptibility profile; assay type: cell-based, Acinetobacter baumannii; design: key: Resistance; Intermediate; Susceptible
Outline: as §2

[11] = system: A. baumannii clinical isolate NY B; assay: Antibiotic susceptibility profile; assay type: cell-based, Acinetobacter baumannii; design: key: Resistance; Intermediate; Susceptible
Outline: as §2

[12] = system: A. baumannii clinical isolate LAC 20; assay: Antibiotic susceptibility profile; assay type: cell-based, Acinetobacter baumannii; design: key: Resistance; Intermediate; Susceptible
Outline: as §2

[13] = system: A. baumannii clinical isolate LAC 16; assay: Antibiotic susceptibility profile; assay type: cell-based, Acinetobacter baumannii; design: key: Resistance; Intermediate; Susceptible
Outline: as §2

[14] = system: A. baumannii reference strain AYE; assay: Antibiotic susceptibility profile; assay type: cell-based, Acinetobacter baumannii; design: key: Resistance; Intermediate; Susceptible
Outline: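 Clinical isolates from nosocomial infections in New York City and Los Angeles, tested alongside reference strains against only antibiotics having A. baumannii breakpoints; each scored R (resistant), I (intermediate) or S (susceptible).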

[15] = system: A. baumannii clinical isolate NY A; assay: Antibiotic susceptibility profile; assay type: cell-based, Acinetobacter baumannii; design: key: Resistance; Intermediate; Susceptible
Outline: as §2

[16] = system: A. baumannii reference strain 17978; assay: Antibiotic susceptibility profile; assay type: cell-based, Acinetobacter baumannii; design: key: Resistance; Intermediate; Susceptible; details: strain 17978 (ATCC)
Outline: as §3

[17] = system: A. baumannii clinical isolate LAC 15; assay: Antibiotic susceptibility profile; assay type: cell-based, Acinetobacter baumannii; design: key: Resistance; Intermediate; Susceptible
Outline: as §2

[18] = system: A. baumannii clinical isolate NY D; assay: Antibiotic susceptibility profile; assay type: cell-based, Acinetobacter baumannii; design: key: Resistance; Intermediate; Susceptible
Outline: as §2

[19] = system: A. baumannii reference strain 15839; assay: Antibiotic susceptibility profile; assay type: cell-based, Acinetobacter baumannii; design: key: Resistance; Intermediate; Susceptible; details: strain 15839 (ATCC)
Outline: as §3

[20] = system: A. baumannii clinical isolate LAC 03; assay: Antibiotic susceptibility profile; assay type: cell-based, Acinetobacter baumannii; design: key: Resistance; Intermediate; Susceptible
Outline: as §2

[21] = system: A. baumannii clinical isolate LAC 11; assay: Antibiotic susceptibility profile; assay type: cell-based, Acinetobacter baumannii; design: key: Resistance; Intermediate; Susceptible
Outline: as §2

[22] = system: A. baumannii clinical isolate LAC 14; assay: Antibiotic susceptibility profile; assay type: cell-based, Acinetobacter baumannii; design: key: Resistance; Intermediate; Susceptible
Outline: as §2

[23] = system: A. baumannii clinical isolate NY G; assay: Antibiotic susceptibility profile; assay type: cell-based, Acinetobacter baumannii; design: key: Resistance; Intermediate; Susceptible
Outline: as §2

[24] = system: A. baumannii reference strain 19606; assay: Antibiotic susceptibility profile; assay type: cell-based, Acinetobacter baumannii; design: key: Resistance; Intermediate; Susceptible; details: strain 19606 (ATCC)
Outline: as §3

[25] = system: A. baumannii clinical isolate NY H; assay: Antibiotic susceptibility profile; assay type: cell-based, Acinetobacter baumannii; design: key: Resistance; Intermediate; Susceptible
Outline: as §2

[26] = system: A. baumannii clinical isolate LAC 18; assay: Antibiotic susceptibility profile; assay type: cell-based, Acinetobacter baumannii; design: key: Resistance; Intermediate; Susceptible
Outline: as §2

[27] = system: A. baumannii clinical isolate NY E; assay: Antibiotic susceptibility profile; assay type: cell-based, Acinetobacter baumannii; design: key: Resistance; Intermediate; Susceptible
Outline: as §2

[28] = system: A. baumannii clinical isolate LAC 01; assay: Antibiotic susceptibility profile; assay type: cell-based, Acinetobacter baumannii; design: key: Resistance; Intermediate; Susceptible
Outline: as §2

[29] = system: A. baumannii clinical isolate LAC 19; assay: Antibiotic susceptibility profile; assay type: cell-based, Acinetobacter baumannii; design: key: Resistance; Intermediate; Susceptible
Outline: as §2

[30] = system: A. baumannii clinical isolate LAC 17; assay: Antibiotic susceptibility profile; assay type: cell-based, Acinetobacter baumannii; design: key: Resistance; Intermediate; Susceptible
Outline: as §2

[31] = system: A. baumannii clinical isolate LAC 02; assay: Antibiotic susceptibility profile; assay type: cell-based, Acinetobacter baumannii; design: key: Resistance; Intermediate; Susceptible
Outline: as §2

[32] = system: A. baumannii clinical isolate LAC 06; assay: Antibiotic susceptibility profile; assay type: cell-based, Acinetobacter baumannii; design: key: Resistance; Intermediate; Susceptible
Outline: as §2

[33] = system: A. baumannii clinical isolate NY F; assay: Antibiotic susceptibility profile; assay type: cell-based, Acinetobacter baumannii; design: key: Resistance; Intermediate; Susceptible
Outline: as §2

[34] = system: A. baumannii clinical isolate LAC 04; assay: Antibiotic susceptibility profile; assay type: cell-based, Acinetobacter baumannii; design: key: Resistance; Intermediate; Susceptible
Outline: as §2

[35] = system: A. baumannii clinical isolate LAC 07; assay: Antibiotic susceptibility profile; assay type: cell-based, Acinetobacter baumannii; design: key: Resistance; Intermediate; Susceptible
Outline: as §2

Chain of MurG protein (P17443 whole entry): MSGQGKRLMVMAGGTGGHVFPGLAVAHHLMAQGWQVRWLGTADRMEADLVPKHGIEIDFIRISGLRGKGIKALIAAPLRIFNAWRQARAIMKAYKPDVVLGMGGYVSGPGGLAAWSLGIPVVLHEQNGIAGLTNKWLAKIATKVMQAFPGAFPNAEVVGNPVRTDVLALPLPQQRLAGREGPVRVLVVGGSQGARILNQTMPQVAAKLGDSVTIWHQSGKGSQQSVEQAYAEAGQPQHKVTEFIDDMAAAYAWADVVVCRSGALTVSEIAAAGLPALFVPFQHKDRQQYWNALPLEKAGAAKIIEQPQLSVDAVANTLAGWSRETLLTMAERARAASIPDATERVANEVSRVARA

Row | Compound | Antibiotic susceptibility [3] | Antibiotic susceptibility [4] | Antibiotic susceptibility [5] | Antibiotic susceptibility [6] | Antibiotic susceptibility [7] | Antibiotic susceptibility [8] | Antibiotic susceptibility [9] | Antibiotic susceptibility [10] | Antibiotic susceptibility [11] | Antibiotic susceptibility [12] | Antibiotic susceptibility [13] | Antibiotic susceptibility [14] | Antibiotic susceptibility [15] | Antibiotic susceptibility [16] | Antibiotic susceptibility [17] | Antibiotic susceptibility [18] | Antibiotic susceptibility [19] | Antibiotic susceptibility [20] | Antibiotic susceptibility [21] | Antibiotic susceptibility [22] | also measured
1 | ramoplanin |  |  |  |  |  |  |  |  |  |  |  |  |  |  |  |  |  |  |  |  | binding to MurG protein by SPR (MurG protein): Dose-dependent specific binding
2 | CN=C1NC(=O)[C@H]([C@H](C)c2c[nH]c3ccccc23)O1 [indolmycin] |  |  |  |  |  |  |  |  |  |  |  |  |  |  |  |  |  |  |  |  | interaction with TrpS protein by SPR [1]: Specific interaction
3 | COc1cc(/C=C/C(=O)O)ccc1O [ferulic acid] |  |  |  |  |  |  |  |  |  |  |  |  |  |  |  |  |  |  |  |  | binding onto pre-immobilized BSA (SPR sensorgrams) [2]: binding
4 | CCN1CCN(C(=O)N[C@@H](C(=O)N[C@@H]2C(=O)N3[C@@H]2SC(C)(C)[C@@H]3C(=O)O)c2ccccc2)C(=O)C1=O [PIP, Piperacillin] | R | I | R | R | I | R | R | R | R | R | R | R | R | S | R | R | I | R | R | R | Antibiotic susceptibility [23]: R; Antibiotic susceptibility [24]: I; Antibiotic susceptibility [25]: R; Antibiotic susceptibility [26]: R; Antibiotic susceptibility [27]: R; Antibiotic susceptibility [28]: R; Antibiotic susceptibility [29]: R; Antibiotic susceptibility [30]: R; Antibiotic susceptibility [31]: R; Antibiotic susceptibility [32]: S; Antibiotic susceptibility [33]: R; Antibiotic susceptibility [34]: R; Antibiotic susceptibility [35]: R
5 | CC(C)(O/N=C(\C(=O)N[C@@H]1C(=O)N2C(C(=O)[O-])=C(C[n+]3ccccc3)CS[C@H]12)c1csc(N)n1)C(=O)O [CAZ, Ceftazidime] | R | I | S | R | I | R | R | R | R | R | R | R | R | S | R | R | R | R | R | R | Antibiotic susceptibility [23]: R; Antibiotic susceptibility [24]: S; Antibiotic susceptibility [25]: R; Antibiotic susceptibility [26]: R; Antibiotic susceptibility [27]: R; Antibiotic susceptibility [28]: R; Antibiotic susceptibility [29]: R; Antibiotic susceptibility [30]: R; Antibiotic susceptibility [31]: R; Antibiotic susceptibility [32]: S; Antibiotic susceptibility [33]: R; Antibiotic susceptibility [34]: R; Antibiotic susceptibility [35]: R
6 | CO/N=C(\C(=O)N[C@@H]1C(=O)N2C(C(=O)O)=C(CSc3nc(=O)c(=O)[nH]n3C)CS[C@H]12)c1csc(N)n1 [CRO, Ceftriaxone] | R | I | I | R | I | R | R | R | R | R | R | R | R | S | R | R | R | R | R | R | Antibiotic susceptibility [23]: R; Antibiotic susceptibility [24]: I; Antibiotic susceptibility [25]: R; Antibiotic susceptibility [26]: R; Antibiotic susceptibility [27]: I; Antibiotic susceptibility [28]: R; Antibiotic susceptibility [29]: R; Antibiotic susceptibility [30]: R; Antibiotic susceptibility [31]: R; Antibiotic susceptibility [32]: R; Antibiotic susceptibility [33]: R; Antibiotic susceptibility [34]: R; Antibiotic susceptibility [35]: R

— patent US20080090734A1, “DRUG SCREENING AND TARGET IDENTIFICATION USING SPR IMAGING OF TARGET PROTEIN ARRAYS” (The Trustees of California State University, priority 2006, published 2008)
